Assay results from patent US20250236639A1, “NEUROACTIVE STEROIDS AND COMPOSITIONS THEREOF” (Sage Therapeutics, Inc., priority 2019, published 2025).

These compounds were tested against GABAA receptor (assay: Steroid inhibition of [35S]-TBPS binding, rat brain cortical membranes). Conditions: 3 nM [35S]-TBPS, in the presence of 5 mM GABA.
Experimental: [^35S]-t-Butylbicyclophosphorothionate (TBPS) binding assays using rat brain cortical membranes in the presence of 5 mM GABA has been described (Gee et al, J. Pharmacol. Exp. Ther. 1987, 241, 346-353; Hawkinson et al, Mol. Pharmacol. 1994, 46, 977-985; Lewin, A. H et al., Mol. Pharmacol. 1989, 35, 189-194).
Briefly, cortices are rapidly removed following decapitation of carbon dioxide-anesthetized Sprague-Dawley rats (200-250 g). The cortices are homogenized in 10 volumes of ice-cold 0.32 M sucrose using a glass/teflon homogenizer and centrifuged at 1500×g for 10 min at 4° C. The resultant supernatants are centrifuged at 10,000×g for 20 min at 4° C. to obtain the P2 pellets. The P2 pellets are resuspended in 200 mM NaCl/50 mM Na—K phosphate pH 7.4 buffer and centrifuged at 10,000×g for 10 min at 4° C. This washing procedure is repeated twice and the pellets are resuspended in 10 volumes of buffer. Aliquots ([…]) of the membrane suspensions are incubated with 3 nM [^35S]-TBPS and […] aliquots of test drug dissolved in dimethyl sulfoxide (DMSO) (final 0.5%) in the presence of 5 mM GABA. The incubation is brought to a final volume of 1.0 mL with buffer. Nonspecific binding is determined in the presence of […] and ranged from 15 to 25%. Following a 90 min incubation at room temp, the assays are terminated by filtration through glass fiber filters (Schleicher and Schuell No. 32) using a cell harvester (Brandel) and rinsed three times with ice-cold buffer. Filter bound radioactivity is measured by liquid scintillation spectrometry. Non-linear curve fitting of the overall data for each drug averaged for each concentration is done using Prism (GraphPad). […] The concentration of test compound producing 50% inhibition (IC50) of specific binding and the maximal extent of inhibition (Imax) are determined for the individual experiments with the same model used for the overall data and then the means±SEM.s of the individual experiments are calculated.
Various compounds are or can be screened to determine their potential as modulators of [^35S]-TBPS binding in vitro. These assays are or can be performed in accordance with the above
Work on `COC[C@@]1(O)CC[C@H]2[C@H](CC[C@@H]3[C@@H]2CC[C@]2(C)[C@@H](C(C)(Cn4cc(C#N)cn4)OC)CC[C@@H]32)C1` (stereo in doubt) [Compound 32, 1-((R)-2-((3R,5R,8R,9R,10S,13S,14S,17S)-3-hydroxy-3-(methoxymethyl)-13-methylhexadecahydro-1H-cyclopenta[a]phenanthren-17-yl)-2-methoxypropyl)-1H-pyrazole-4-carbonitrile] yielded an IC50 of 100 to 1000 nM.
With `COC[C@@]1(O)CC[C@H]2[C@H](CC[C@@H]3[C@@H]2CC[C@]2(C)[C@@H](C(C)(Cn4cc(C#N)cn4)OC)CC[C@@H]32)C1` (stereo in doubt) [Compound 33, 1-[(2S)-2-[(1S,3aS,3bR,5aR,7R,9aS,9bR,11aS)-7-hydroxy-7-(methoxymethyl)-11a-methyl-hexadecahydro-1H-cyclopenta[a]phenanthren-1-yl]-2-methoxypropyl]-1H-pyrazole-4-carbonitrile] the IC50 was 100 to 1000 nM.
In the case of `C[C@@]1(O)CC[C@H]2[C@H](CC[C@@H]3[C@@H]2CC[C@@]2(C)[C@H]3CC[C@@H]2[C@@](C)(O)Cn2cc(C#N)cn2)C1` [Compound 1, 1-((R)-2-hydroxy-2-((3R,5R,8R,9R,10S,13S,14S,17S)-3-hydroxy-3,13-dimethylhexadecahydro-1H-cyclopenta[a]phenanthren-17-yl)propyl)-1H-pyrazole-4-carbonitrile], the IC50 is reported as less than 100 nM.
For `C[C@@]1(O)CC[C@H]2[C@H](CC[C@@H]3[C@@H]2CC[C@@]2(C)[C@H]3CC[C@@H]2[C@](C)(O)Cn2cc(C#N)cn2)C1` [Compound 2, 1-((S)-2-hydroxy-2-((3R,5R,8R,9R,10S,13S,14S,17S)-3-hydroxy-3,13-dimethylhexadecahydro-1H-cyclopenta[a]phenanthren-17-yl)propyl)-1H-pyrazole-4-carbonitrile], the IC50 was less than 100 nM.
`CC[C@]12CC[C@@](C)(O)C[C@H]1CC[C@H]1[C@@H]3CC[C@H]([C@](C)(O)Cn4cc(C#N)cn4)[C@@]3(C)CC[C@@H]12` [Compound 3, 1-((S)-2-((3R,5R,8S,9S,10S,13S,14S,17S)-10-ethyl-3-hydroxy-3,13-dimethylhexadecahydro-1H-cyclopenta[a]phenanthren-17-yl)-2-hydroxypropyl)-1H-pyrazole-4-carbonitrile] was tested, and the IC50 was less than 100 nM.
Work on `CC[C@]12CC[C@@](C)(O)C[C@H]1CC[C@H]1[C@@H]3CC[C@H]([C@@](C)(O)Cn4cc(C#N)cn4)[C@@]3(C)CC[C@@H]12` [Compound 4, 1-((R)-2-((3R,5R,8S,9S,10S,13S,14S,17S)-10-ethyl-3-hydroxy-3,13-dimethylhexadecahydro-1H-cyclopenta[a]phenanthren-17-yl)-2-hydroxypropyl)-1H-pyrazole-4-carbonitrile] yielded an IC50 of less than 100 nM.
`CC[C@]12CC[C@@](C)(O)C[C@H]1CC[C@H]1[C@@H]3CC[C@H]([C@@](C)(Cn4cc(C#N)cn4)OC)[C@@]3(C)CC[C@@H]12` [Compound 5, 1-((S)-2-((3R,5R,8S,9S,10S,13S,14S,17S)-10-ethyl-3-hydroxy-3,13-dimethylhexadecahydro-1H-cyclopenta[a]phenanthren-17-yl)-2-methoxypropyl)-1H-pyrazole-4-carbonitrile] was tested, and the IC50 was less than 100 nM.
In the case of `CC[C@]12CC[C@@](C)(O)C[C@H]1CC[C@H]1[C@@H]3CC[C@H]([C@](C)(Cn4cc(C#N)cn4)OC)[C@@]3(C)CC[C@@H]12` [Compound 6, 1-((R)-2-((3R,5R,8S,9S,10S,13S,14S,17S)-10-ethyl-3-hydroxy-3,13-dimethylhexadecahydro-1H-cyclopenta[a]phenanthren-17-yl)-2-methoxypropyl)-1H-pyrazole-4-carbonitrile], the IC50 is reported as less than 100 nM.
In the case of `CCC[C@@]1(O)CC[C@H]2[C@H](CC[C@@H]3[C@@H]2CC[C@@]2(C)[C@H]3CC[C@@H]2[C@](C)(O)Cn2cc(C#N)cn2)C1` [Compound 7, 1-((S)-2-hydroxy-2-((3R,5R,8R,9R,10S,13S,14S,17S)-3-hydroxy-13-methyl-3-propylhexadecahydro-1H-cyclopenta[a]phenanthren-17-yl)propyl)-1H-pyrazole-4-carbonitrile], the IC50 is reported as less than 100 nM.
`CCC[C@@]1(O)CC[C@H]2[C@H](CC[C@@H]3[C@@H]2CC[C@@]2(C)[C@H]3CC[C@@H]2[C@@](C)(O)Cn2cc(C#N)cn2)C1` [Compound 8, 1-((R)-2-hydroxy-2-((3R,5R,8R,9R,10S,13S,14S,17S)-3-hydroxy-13-methyl-3-propylhexadecahydro-1H-cyclopenta[a]phenanthren-17-yl)propyl)-1H-pyrazole-4-carbonitrile] gave an IC50 of 100 to 1000 nM.
Work on `CCC[C@@]1(O)CC[C@H]2[C@@H](CC[C@@H]3[C@@H]2CC[C@@]2(C)[C@H]3CC[C@@H]2[C@](C)(O)Cn2cc(C#N)cn2)C1` [Compound 9, 1-((S)-2-hydroxy-2-((3R,5S,8R,9R,10S,13S,14S,17S)-3-hydroxy-13-methyl-3-propylhexadecahydro-1H-cyclopenta[a]phenanthren-17-yl)propyl)-1H-pyrazole-4-carbonitrile] yielded an IC50 of 100 to 1000 nM.
With `CCC[C@@]1(O)CC[C@H]2[C@@H](CC[C@@H]3[C@@H]2CC[C@@]2(C)[C@H]3CC[C@@H]2[C@@](C)(O)Cn2cc(C#N)cn2)C1` [Compound 10, 1-((R)-2-hydroxy-2-((3R,5S,8R,9R,10S,13S,14S,17S)-3-hydroxy-13-methyl-3-propylhexadecahydro-1H-cyclopenta[a]phenanthren-17-yl)propyl)-1H-pyrazole-4-carbonitrile] the IC50 was no less than 1000 nM.
In the case of `CC[C@@]1(O)CC[C@H]2[C@H](CC[C@@H]3[C@@H]2CC[C@@]2(C)[C@H]3CC[C@@H]2[C@](C)(O)Cn2cc(C#N)cn2)C1` [Compound 11, 1-((S)-2-((3R,5R,8R,9R,10S,13S,14S,17S)-3-ethyl-3-hydroxy-13-methylhexadecahydro-1H-cyclopenta[a]phenanthren-17-yl)-2-hydroxypropyl)-1H-pyrazole-4-carbonitrile], the IC50 is reported as less than 100 nM.
Compound `CC[C@@]1(O)CC[C@H]2[C@H](CC[C@@H]3[C@@H]2CC[C@@]2(C)[C@H]3CC[C@@H]2[C@@](C)(O)Cn2cc(C#N)cn2)C1` [Compound 12, 1-((R)-2-((3R,5R,8R,9R,10S,13S,14S,17S)-3-ethyl-3-hydroxy-13-methylhexadecahydro-1H-cyclopenta[a]phenanthren-17-yl)-2-hydroxypropyl)-1H-pyrazole-4-carbonitrile] has an IC50 of 100 to 1000 nM.
With `CC[C@@]1(O)CC[C@H]2[C@@H](CC[C@@H]3[C@@H]2CC[C@@]2(C)[C@H]3CC[C@@H]2[C@](C)(O)Cn2cc(C#N)cn2)C1` [Compound 13, 1-((S)-2-((3R,5S,8R,9R,10S,13S,14S,17S)-3-ethyl-3-hydroxy-13-methylhexadecahydro-1H-cyclopenta[a]phenanthren-17-yl)-2-hydroxypropyl)-1H-pyrazole-4-carbonitrile] the IC50 was 100 to 1000 nM.
For `CC[C@@]1(O)CC[C@H]2[C@@H](CC[C@@H]3[C@@H]2CC[C@@]2(C)[C@H]3CC[C@@H]2[C@@](C)(O)Cn2cc(C#N)cn2)C1` [Compound 14, 1-((R)-2-((3R,5S,8R,9R,10S,13S,14S,17S)-3-ethyl-3-hydroxy-13-methylhexadecahydro-1H-cyclopenta[a]phenanthren-17-yl)-2-hydroxypropyl)-1H-pyrazole-4-carbonitrile], the IC50 was no less than 1000 nM.
